# Results reported in article PMC7472660 (Chemical Science, 2019).
# Biological target: prostate-specific membrane antigen (PSMA) (Homo sapiens, UniProt Q04609)
# Experiment: radioligand displacement of […]mTc-MIP-1427 on PSMA+ PC-3 PiP cells
# Format: cell-based
# Sequence of prostate-specific membrane antigen (PSMA) (Q04609 whole entry): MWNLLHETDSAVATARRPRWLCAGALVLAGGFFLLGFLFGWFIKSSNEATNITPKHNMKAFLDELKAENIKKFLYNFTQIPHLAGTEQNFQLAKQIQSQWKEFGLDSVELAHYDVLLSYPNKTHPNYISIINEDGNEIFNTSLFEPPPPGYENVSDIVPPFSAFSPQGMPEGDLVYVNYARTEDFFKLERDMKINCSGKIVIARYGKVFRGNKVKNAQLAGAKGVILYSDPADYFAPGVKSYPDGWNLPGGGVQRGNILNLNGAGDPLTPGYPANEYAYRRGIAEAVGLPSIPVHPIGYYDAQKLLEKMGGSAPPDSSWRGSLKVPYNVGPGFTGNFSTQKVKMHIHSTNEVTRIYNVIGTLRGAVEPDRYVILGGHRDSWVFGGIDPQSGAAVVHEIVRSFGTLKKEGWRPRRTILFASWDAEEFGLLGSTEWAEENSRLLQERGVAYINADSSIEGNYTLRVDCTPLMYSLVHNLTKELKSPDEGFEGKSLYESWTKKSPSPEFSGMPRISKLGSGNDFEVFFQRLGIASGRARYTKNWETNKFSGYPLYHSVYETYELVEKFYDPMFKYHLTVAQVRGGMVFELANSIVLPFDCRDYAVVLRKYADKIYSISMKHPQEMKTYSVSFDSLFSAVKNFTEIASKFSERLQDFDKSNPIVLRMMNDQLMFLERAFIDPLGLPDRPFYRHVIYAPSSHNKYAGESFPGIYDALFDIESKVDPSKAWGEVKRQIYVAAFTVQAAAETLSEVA
row,Ki [µM],Substance
1,0.222 ± 0.186,Sc(DOTA)-DUPA
2,0.0016 ± 0.0004,Sc(picaga)-DUPA
